Values quoted from earlier work, collected in publication PMC9311059, “P‐Glycoprotein and Breast Cancer Resistance Protein Transporter Inhibition by Cyclosporine and Quinidine on the Pharmacokinetics of Oral Rimegepant in Healthy Subjects” (Clinical Pharmacology in Drug Development, 2022).

Settings: oral midazolam coadministered with cyclosporine; cited from earlier work

For `Cc1ncc2n1-c1ccc(Cl)cc1C(c1ccccc1F)=NC2` [midazolam], the “change in midazolam Cmax” value is given as “no meaningful change” and the “increase in midazolam AUC” value is given as 46%.
